These results are taken from US20190055517A1, “Cell Line of M2c Macrophage and Its Applications” (National Pingtung University of Science and Technology, priority 2017, published 2019).

One data set deals with Raw264.7 macrophages. Briefly: H2O2 induction of apoptotic cells (annexin-V / 7-AAD flow cytometry). It is filed as cell-based, murine. The note with it: 1.5 mM H2O2 versus 0.5 and 1 mM, 12 hours, FIG. 19. The procedure:
Inducing apoptotic cells: minor changes were made from steps of obtaining apoptotic cells based on previous studies (Piao et al., 2011 and Fong et al 2007), detailed steps comprising: culture 1.5×10^6 RAW264.7 macrophages with DMEM medium containing 10% FBS in incubator (37° C., 5% CO2). After culturing overnight, treat with 0.5, 1, 1.5 mM H2O2 respectively in DMEM for 12 hours. Next, remove the DMEM medium containing H2O2 and wash the cells with PBS buffer, then use micropipette to transfer cells to 15 ml centrifuge tube and centrifuge cells at 4° C. for 5 mins at rotating speed of 500×g. Remove the supernatant and resuspend the cells with 95 μl […]. Following that, dye the cells with fluorescence marker annexin-V and 7-AAD (BD Bioscience) for 20 mins on ice, avoiding light. After marking the cells, use flow cytometry (FACS BD ARIA II) to detect fluorescence performance. Analysed by software CellQuest (BD Bioscience). If the cells were positive for annexin-V and negative for 7-AAD, the cells will be identified as early apoptotic cells; if the cells were positive for annexin-V and positive for 7-AAD, the cells would be identified as late apoptotic cells.
For orientation: In flow cytometry, cells or beads pass a laser one at a time.

Data set [1] has as its system murine M2 macrophage. Briefly: Phagocytosis of FITC-Latex beads with PE-anti-MERTK staining (flow cytometry, fluorescence microscopy). It is filed as cell-based. Particulars: fluorescence microscope, PE-MERTK, FIG. 18. The procedure: In this example, experiment was performed to evaluate the effect of baicalin induced differentiated […] macrophages in promoting phagocytosis. Treatment conditions of drugs in each group is listed in chart 2, and control group is cultured in RPMI1640 (10% FCS) without any drugs. After treatment, collect 5×10^5 treated cells respectively and add 50 μl FITC-Latex beads (Phagocytosis assay kit (IgG FITC), Cayman Chemical, USA.) to perform phagocytosis experiment for 24 hours, and then use PE-anti-MERTK antibody to mark the cells and observe the fluorescence expression with flow cytometry.

Data set [2] relates to murine M2 macrophage. The experiment in a line: Macrophage phenotype by flow cytometry (CD86, CD206) after drug-induced differentiation. It is filed as cell-based. Particulars: conditions of chart 2, p<0.05, FIG. 3. The protocol:
(§1) Use PBS containing 0.5% BSA to flush out bone marrow cells from murine (C57BL/6J, 8-20 weeks, Taiwan National Laboratory Animal Center) femur, then use Ficoll-Hypaque (GE healthcare, SWEDEN) to isolate monocytes.
(§2) Then, incubate 2×10^6 monocytes in 50 ng/ml M-CSF contained RPMI 1640 (10% FCS) medium under 37° c., 5% CO2 for seven days to induce M2 macrophage polarization. On the eighth day, collect 2×10^5 M2 macrophage and incubate them in RPMI 1640 (10% FCS) medium with Baicalin (50 μM, Tokyo Chemical Industry, JAPAN) for 24 hours. Baicalin will induce M2 macrophage to differentiate into M2C macrophage.
Embodiment 1 is prepared by the steps described above, isolate monocytes from murine bone marrow and use M-CSF to induce differentiation of M2 macrophage, and then use baicalin to induce M2C macrophage polarization. In comparison 1, incubate murine M2 macrophage in RPMI 1640 (10% FCS) containing LPS (lipopolysaccharide, 1 μg/ml, Sigma-Aldrich) for 2 hours. In comparison 2, incubate murine M2 macrophage in medium containing IL-4 ([…] Guidance System, Cambridge, UK) for 24 hours. The control group of M2 macrophage is incubated in RPMI 1640 (10% FCS) without any drugs. The conditions are shown below in chart 2.
After induced differentiation is complete, use flow cytometry to analyse the macrophage phenotype, in the meantime, also use real time PCR (qPCR) to observe mRNA expression level of each gene.
(§3) FIG. 2˜4 show results of macrophage phenotypes analysed by flow cytometry.

Data set [3] relates to monocytes from murine bone marrow. Briefly: M-CSF induced M2 polarization of bone marrow monocytes (flow cytometry CD11b, CD206, CD80). It is filed as cell-based. The note with it: 50 ng/ml M-CSF, treated for 7 days, p<0.05, FIG. 2. The procedure:
as §1, §2, §3

On to `OO` [Embodiment H2O2, H2O2], for which the “percentage of apoptotic cells” value in the data set on Raw264.7 macrophages was “higher percentage of apoptotic cells”.

As to “lipopolysaccharide [LPS, reference compound]”, the “MERTK fluorescence distribution of cells after phagocytosing FITC-Latex beads” value with murine M2 macrophage [1] was “comparatively weaker”. For the same molecule, the “percentage of M1 macrophage (CD86+CD206-)” value in the data set with murine M2 macrophage [2] is listed as “higher”.

B1: macrophage colony-stimulating factor (protein, UniProt P09603 33-554, looked up)
Macrophage colony-stimulating …: EEVSEYCSHMIGSGHLQSLQRLIDSQMETSCQITFEFVDQEQLKDPVCYLKKAFLLVQDIMEDTMRFRDNTPNAIAIVQLQELSLRLKSCFTKDYEEHDKACVRTFYETPLQLLEKVKNVFNETKNLLDKDWNIFSKNCNNSFAECSSQDVVTKPDCNCLYPKAIPSSDPASVSPHQPLAPSMAPVAGLTWEDSEGTEGSSLLPGEQPLHTVDPGSAKQRPPRSTCQSFEPPETPVVKDSTIGGSPQPRPSVGAFNPGMEDILDSAMGTNWVPEEASGEASEIPVPQGTELSPSRPGGGSMQTEPARPSNFLSASSPLPASAKGQQPADVTGTALPRVGPVRPTGQDWNHTPQKTDHPSALLRDPPEPGSPRISSLRPQGLSNPSTLSAQPQLSRSHSSGSVLPLGELEGRRSTRDRRSPAEPEGGPASEGAARPLPRFNSVPLTDTGHERQSEGSFSPQLQESVFHLLVPSVILVLLAVGGLLFYRWRRRSHQEPQRADSPLEQPEGSPLTQDDRQVELPV
notes: 50 ng/ml, induces M2 macrophage polarization of monocytes
As to B1, the “percentage of cells expressing CD11b and CD206 at the same time (CD11b+CD206+)” value in data set [3] is listed as “highest percentage”.

B2: IL-4: cytokine, 10 ng/ml, 24 hours, comparison drug to induce differentiation (protein, UniProt P05112 25-153, looked up)
Interleukin-4: HKCDITLQEIIKTLNSLTEQKTLCTELTVTDIFAASKNTTEKETFCRAATVLRQFYSHHEKDTRCLGATAQQFHRHKQLIRFLKRLDRNLWGLAGLNSCPVKEANQSTLENFLERLKTIMREKYSKCSS
In the case of B2, the “percentage of M2 macrophage (CD86-CD206+)” value in the data set on murine M2 macrophage [2] was “higher”.
